Experimental data: ChEMBL document CHEMBL1201862, “PubChem BioAssay data set” (2004)
The source made the active and inactive calls.

Assays:
[1] = cytotoxicity toward NIH3T3 fibroblasts, dose response, counter-screen, cell-based, ATP luminescence, mouse fibroblasts (AID 2010); type: functional;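 also: cells exposed to compound for about 90 hours before reading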
[2] = inhibitors of intracellular T. cruzi replication, confirmation, NIH3T3 host cells, beta-gal luminescence (AID 2044); type: functional, cell-based;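 also: intracellular parasites grown in NIH/3T3 mouse fibroblasts as host cells; luminescent beta-galactosidase reporter signal from transgenic T. cruzi replicating inside host cells; inhibitors lower the luminescence signal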
[3] = biological target: Voltage-dependent T-type calcium channel subunit alpha-1H (Homo sapiens, UniProt O95180); type: functional;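 also: channel activity triggered by adding a high calcium stimulation buffer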
Voltage-dependent T-type calcium channel subunit alpha-1H, sequence (O95180 whole entry): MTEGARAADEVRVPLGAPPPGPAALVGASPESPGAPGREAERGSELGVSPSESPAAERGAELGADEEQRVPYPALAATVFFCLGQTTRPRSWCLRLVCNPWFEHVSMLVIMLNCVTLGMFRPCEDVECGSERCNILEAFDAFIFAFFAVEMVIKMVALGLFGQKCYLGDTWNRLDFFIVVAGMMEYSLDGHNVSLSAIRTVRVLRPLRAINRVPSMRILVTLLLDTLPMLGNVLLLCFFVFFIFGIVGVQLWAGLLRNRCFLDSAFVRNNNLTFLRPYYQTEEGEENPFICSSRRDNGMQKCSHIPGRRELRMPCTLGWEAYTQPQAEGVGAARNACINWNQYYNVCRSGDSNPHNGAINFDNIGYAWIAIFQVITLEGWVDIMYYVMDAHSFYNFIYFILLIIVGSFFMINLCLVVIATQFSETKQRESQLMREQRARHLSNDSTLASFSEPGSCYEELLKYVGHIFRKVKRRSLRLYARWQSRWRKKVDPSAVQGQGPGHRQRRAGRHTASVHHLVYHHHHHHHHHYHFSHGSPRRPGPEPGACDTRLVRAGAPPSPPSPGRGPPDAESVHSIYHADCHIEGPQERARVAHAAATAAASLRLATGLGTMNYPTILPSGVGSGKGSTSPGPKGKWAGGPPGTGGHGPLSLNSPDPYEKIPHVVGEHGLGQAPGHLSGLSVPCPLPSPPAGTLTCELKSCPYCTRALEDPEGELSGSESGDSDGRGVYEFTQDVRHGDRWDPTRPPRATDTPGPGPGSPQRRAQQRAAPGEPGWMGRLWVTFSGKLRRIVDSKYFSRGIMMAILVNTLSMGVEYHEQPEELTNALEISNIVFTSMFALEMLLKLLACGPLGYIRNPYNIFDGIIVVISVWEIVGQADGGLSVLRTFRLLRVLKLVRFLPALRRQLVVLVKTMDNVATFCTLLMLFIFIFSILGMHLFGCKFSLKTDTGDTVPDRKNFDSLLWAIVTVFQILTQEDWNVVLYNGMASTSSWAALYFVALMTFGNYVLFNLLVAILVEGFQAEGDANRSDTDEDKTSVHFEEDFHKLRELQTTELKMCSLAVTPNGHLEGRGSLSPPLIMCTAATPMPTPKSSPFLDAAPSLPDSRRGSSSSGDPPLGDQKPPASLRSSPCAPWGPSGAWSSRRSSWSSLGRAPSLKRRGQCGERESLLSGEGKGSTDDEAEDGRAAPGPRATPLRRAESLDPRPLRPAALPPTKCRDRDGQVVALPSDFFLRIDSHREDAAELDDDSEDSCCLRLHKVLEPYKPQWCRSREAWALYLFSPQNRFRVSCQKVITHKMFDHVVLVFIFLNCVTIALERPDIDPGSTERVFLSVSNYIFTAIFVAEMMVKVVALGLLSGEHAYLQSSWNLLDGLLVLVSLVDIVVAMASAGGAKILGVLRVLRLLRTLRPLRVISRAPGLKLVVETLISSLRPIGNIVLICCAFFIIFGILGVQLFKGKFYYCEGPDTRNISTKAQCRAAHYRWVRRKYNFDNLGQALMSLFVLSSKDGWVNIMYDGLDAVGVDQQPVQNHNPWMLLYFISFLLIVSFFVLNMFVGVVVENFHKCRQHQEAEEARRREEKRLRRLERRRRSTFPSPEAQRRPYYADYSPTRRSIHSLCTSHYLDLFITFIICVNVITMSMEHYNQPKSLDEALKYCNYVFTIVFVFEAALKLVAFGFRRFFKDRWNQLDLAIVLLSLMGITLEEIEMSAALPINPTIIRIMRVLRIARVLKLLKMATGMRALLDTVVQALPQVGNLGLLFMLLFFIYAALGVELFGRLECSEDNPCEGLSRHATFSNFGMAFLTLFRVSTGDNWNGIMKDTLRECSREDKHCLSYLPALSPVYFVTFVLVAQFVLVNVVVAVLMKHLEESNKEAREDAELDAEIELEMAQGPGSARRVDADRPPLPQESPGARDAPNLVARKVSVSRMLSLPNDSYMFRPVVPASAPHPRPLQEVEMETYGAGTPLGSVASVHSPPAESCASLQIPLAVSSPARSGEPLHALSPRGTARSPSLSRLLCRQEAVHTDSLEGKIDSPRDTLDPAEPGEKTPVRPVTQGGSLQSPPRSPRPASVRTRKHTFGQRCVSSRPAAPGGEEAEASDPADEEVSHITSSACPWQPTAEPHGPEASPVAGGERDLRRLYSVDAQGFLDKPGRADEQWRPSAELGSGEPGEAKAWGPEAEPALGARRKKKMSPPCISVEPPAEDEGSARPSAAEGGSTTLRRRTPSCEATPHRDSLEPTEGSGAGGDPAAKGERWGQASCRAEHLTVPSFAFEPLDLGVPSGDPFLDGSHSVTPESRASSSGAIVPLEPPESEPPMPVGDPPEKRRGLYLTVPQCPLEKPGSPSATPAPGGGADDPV

[4] = biological target: T1, Corticotropin-releasing factor receptor 2/Corticotropin-releasing factor-binding protein (Homo sapiens, UniProt P24387+Q13324); test: activators of CRF receptor 2 with binding protein – uHTS hits, confirmation (AID 602473); type: functional; conditions: read-out: EC50_Mean
T1 sequence (Q13324 whole entry): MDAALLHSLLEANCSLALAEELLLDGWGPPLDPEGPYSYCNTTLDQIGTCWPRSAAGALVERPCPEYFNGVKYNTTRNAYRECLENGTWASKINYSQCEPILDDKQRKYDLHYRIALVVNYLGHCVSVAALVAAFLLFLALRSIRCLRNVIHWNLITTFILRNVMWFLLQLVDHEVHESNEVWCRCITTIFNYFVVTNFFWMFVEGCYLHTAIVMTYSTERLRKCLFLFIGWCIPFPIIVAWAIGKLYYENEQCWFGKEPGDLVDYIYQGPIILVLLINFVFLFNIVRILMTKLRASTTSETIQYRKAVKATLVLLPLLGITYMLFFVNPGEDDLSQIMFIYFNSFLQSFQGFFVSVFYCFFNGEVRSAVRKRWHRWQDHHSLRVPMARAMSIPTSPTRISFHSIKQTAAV
T1 sequence (P24387 whole entry): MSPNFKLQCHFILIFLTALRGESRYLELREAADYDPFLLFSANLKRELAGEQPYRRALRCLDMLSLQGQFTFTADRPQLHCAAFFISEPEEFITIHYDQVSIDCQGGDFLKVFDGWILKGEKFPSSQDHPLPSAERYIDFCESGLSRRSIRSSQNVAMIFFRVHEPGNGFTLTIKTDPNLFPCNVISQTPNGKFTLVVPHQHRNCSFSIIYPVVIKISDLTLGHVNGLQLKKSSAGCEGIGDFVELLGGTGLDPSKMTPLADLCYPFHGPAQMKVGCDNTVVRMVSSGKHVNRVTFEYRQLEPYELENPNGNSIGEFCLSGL

Beta-galactosidase = Beta-galactosidase (Escherichia coli, UniProt Q8VNN2); test: Dose response counterscreen for EBI2 assay utilizing the enzyme, b-galactosidase.; type: functional
Beta-galactosidase, sequence (Q8VNN2 whole entry): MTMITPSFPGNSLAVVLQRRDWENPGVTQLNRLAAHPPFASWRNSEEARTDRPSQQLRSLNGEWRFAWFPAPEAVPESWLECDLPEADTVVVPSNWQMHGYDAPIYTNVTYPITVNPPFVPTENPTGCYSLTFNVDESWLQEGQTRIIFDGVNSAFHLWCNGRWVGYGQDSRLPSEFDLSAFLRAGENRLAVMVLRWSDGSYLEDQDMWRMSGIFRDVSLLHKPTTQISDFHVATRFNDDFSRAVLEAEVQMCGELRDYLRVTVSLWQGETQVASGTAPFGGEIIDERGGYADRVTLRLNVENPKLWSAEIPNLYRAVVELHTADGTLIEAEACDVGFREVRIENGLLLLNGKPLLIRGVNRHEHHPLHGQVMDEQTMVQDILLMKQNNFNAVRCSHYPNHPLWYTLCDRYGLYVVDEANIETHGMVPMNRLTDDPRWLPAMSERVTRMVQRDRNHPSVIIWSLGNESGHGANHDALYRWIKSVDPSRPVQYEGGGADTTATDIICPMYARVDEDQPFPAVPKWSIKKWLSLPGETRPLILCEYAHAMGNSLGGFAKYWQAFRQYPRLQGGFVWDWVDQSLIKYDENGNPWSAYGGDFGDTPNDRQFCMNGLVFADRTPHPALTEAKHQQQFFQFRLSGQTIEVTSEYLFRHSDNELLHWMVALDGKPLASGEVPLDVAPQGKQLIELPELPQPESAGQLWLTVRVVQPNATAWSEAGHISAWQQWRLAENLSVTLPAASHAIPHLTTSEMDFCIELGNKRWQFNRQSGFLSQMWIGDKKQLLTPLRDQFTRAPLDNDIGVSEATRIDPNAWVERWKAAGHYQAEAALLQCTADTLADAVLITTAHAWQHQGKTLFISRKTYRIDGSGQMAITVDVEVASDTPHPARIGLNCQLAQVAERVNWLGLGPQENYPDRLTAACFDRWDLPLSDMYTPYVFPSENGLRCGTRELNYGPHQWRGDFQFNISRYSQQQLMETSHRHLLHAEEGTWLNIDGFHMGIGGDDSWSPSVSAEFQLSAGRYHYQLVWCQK

[5] = biological target: T1, Corticotropin-releasing factor receptor 2/Corticotropin-releasing factor-binding protein; test: Dose Response confirmation of uHTS hits for small molecule antagonists of the CRF-binding protein and CRF-R2 receptor complex.; type: functional; conditions: read-out: IC50_Mean
[6] = biological target: Fructose-bisphosphate aldolase (Mycobacterium tuberculosis, UniProt P9WQA3); test: Fluorescence-based biochemical high throughput dose response assay for inhibitors of the fructose-bisphosphate aldolase (FBA) of M. tuberculosis.; type: functional
Fructose-bisphosphate aldolase, sequence (P9WQA3 whole entry): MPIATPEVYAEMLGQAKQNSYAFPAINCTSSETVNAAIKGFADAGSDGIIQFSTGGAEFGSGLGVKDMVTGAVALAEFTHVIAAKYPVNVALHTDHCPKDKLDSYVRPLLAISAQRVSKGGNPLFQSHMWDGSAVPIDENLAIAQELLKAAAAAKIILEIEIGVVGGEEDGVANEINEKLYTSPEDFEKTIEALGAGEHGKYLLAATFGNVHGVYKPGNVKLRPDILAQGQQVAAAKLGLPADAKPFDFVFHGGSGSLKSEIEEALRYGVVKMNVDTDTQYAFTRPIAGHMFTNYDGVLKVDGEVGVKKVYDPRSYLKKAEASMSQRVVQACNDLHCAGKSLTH

[7] = biological target: T2, Heat shock factor protein 1 (Mus musculus, UniProt P38532); test: inhibition of MG132-induced HSE-luciferase signal, confirmation, cell-based, NIH3T3, luminescence, dose retest (AID 2382); type: functional;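 also: NIH3T3 fibroblasts with HSF1-driven luciferase reporter stressed by proteasome inhibitor MG132; luminescence from HSF1-driven luciferase expression after 8 hours of MG132 stress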
T2 sequence (P38532 whole entry): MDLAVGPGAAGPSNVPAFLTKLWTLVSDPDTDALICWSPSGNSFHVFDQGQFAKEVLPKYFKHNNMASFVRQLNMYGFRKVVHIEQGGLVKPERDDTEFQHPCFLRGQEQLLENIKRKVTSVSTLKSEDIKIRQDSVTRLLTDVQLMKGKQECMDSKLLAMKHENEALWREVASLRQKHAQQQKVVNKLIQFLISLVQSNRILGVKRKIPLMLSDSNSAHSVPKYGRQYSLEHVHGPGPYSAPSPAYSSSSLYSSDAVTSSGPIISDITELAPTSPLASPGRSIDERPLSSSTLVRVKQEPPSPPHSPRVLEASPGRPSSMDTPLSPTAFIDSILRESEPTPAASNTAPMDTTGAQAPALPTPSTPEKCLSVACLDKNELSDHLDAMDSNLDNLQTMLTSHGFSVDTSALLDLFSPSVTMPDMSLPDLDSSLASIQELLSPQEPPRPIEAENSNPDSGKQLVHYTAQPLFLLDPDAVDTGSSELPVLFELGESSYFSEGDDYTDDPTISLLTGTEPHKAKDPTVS

[8] = biological target: T3, Trace amine-associated receptor 1 (Homo sapiens, UniProt Q96RJ0); test: Fluorescence-based cell-based high throughput dose response assay to identify agonists of the human trace amine associated receptor 1 (TAAR1).; type: functional
T3 sequence (Q96RJ0 whole entry): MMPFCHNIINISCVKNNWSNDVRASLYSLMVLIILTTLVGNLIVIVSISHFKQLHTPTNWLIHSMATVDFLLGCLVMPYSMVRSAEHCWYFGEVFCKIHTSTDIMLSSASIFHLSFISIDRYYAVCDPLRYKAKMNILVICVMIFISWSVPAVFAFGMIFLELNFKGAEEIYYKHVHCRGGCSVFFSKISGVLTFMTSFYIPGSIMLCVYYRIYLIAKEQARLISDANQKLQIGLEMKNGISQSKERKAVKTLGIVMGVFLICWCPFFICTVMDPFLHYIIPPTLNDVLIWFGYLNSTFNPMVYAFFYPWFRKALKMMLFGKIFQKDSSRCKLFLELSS

cells [9] = type: functional, cell-based
[10] = biological target: T3, Trace amine-associated receptor 1; test: Counterscreen for agonists of the human trace amine associated receptor 1 (hTAAR1): Fluorescence-based cell-based high throughput dose response assay to identify hTAAR1 agonist that also desensitize TAAR1 receptor response.; type: functional
cells [11] = type: functional, cell-based; remark: listed apart in the source
[12] = biological target: T2, Heat shock factor protein 1; test: HSF1 potentiators in luciferase reporter cells, confirmation, cell-based, NIH3T3, luminescence, dose retest (AID 435004); type: functional;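 also: stress induced by proteasome inhibitor MG132 added 30 min after compound; luciferase reporter driven by HSF1 response element in NIH3T3 cells; actives raise luminescence as potentiators of the MG132 stress response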
[13] = biological target: T4, Ubiquitin-conjugating enzyme E2 N (Homo sapiens, UniProt P61088); type: functional;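 also: Dose-response confirmation in a TR-FRET assay detecting UBC13-driven polyubiquitin chain formation, inhibition measured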
T4 sequence (P61088 whole entry): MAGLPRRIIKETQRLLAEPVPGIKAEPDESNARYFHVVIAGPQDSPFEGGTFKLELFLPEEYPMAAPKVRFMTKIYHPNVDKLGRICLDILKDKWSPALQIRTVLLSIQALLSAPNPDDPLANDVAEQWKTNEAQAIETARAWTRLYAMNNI

[14] = off-target signal loss in HeLa-CEM21 co-culture – HeLa F-luc CTL cells, cherry-picked, counter-screen for HIV-1 Env fusion inhibitor project, dose response (AID 652040); type: functional, cell-based;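 also: potency for signal decrease marking cytotoxic or nonspecific inhibition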
[15] = Luminescence Cell-Based Dose Response HTS to Identify Activators of Luciferase Translation or Activity in H4 […] Cells. [Related pubchem assays: 1829 (Project Summary), 1814 (Primary HTS)]; type: functional
[16] = CEM21 lymphoblast cell cytotoxicity, dose response, cytotoxicity control for viral fusion inhibitor project, CellTiter-Glo luminescence, cherry-picked (AID 652042); type: functional, cell-based;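 also: potency for signal decrease meaning cytotoxicity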
[17] = inhibitors of clade B AD8 Env fusion, dose response, cell-based, cherry-pick (AID 652062); type: functional;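 also: luciferase signal from cell-cell fusion driven by HIV-1 clade B AD8 Env; potency is for inhibitors of fusion seen as a drop in luminescence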
HEK293 [18] = test: cells; conditions: Homo sapiens
HEK293 [19] = test: cells; conditions: Homo sapiens; remark: listed apart in the source
H4 = test: Luminescence Cell-Based Dose Response HTS to Identify Activators of 5'UTR Stem-Loop Driven Prion Protein mRNA Translation in H4 Neuroglioblastoma Cells. [Related pubchem assays: 1829 (Project Summary), 1814 (Primary HTS)]; type: functional; conditions: Homo sapiens
[20] = inhibitors of HIV Env-driven cell fusion, dose response, cherry-pick (AID 652057); type: functional, cell-based
Melanocortin receptor 4 = Melanocortin receptor 4 (Homo sapiens, UniProt P32245); type: functional, cell-based;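 also: Cell-based assay with luminescence read-out, confirmatory dose-response testing for agonist activity of biased ligands at MC4R; human U2OS cells with tagged receptor and beta-arrestin; potency of agonists that increase receptor coupling to beta-arrestin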
Melanocortin receptor 4, sequence (P32245 whole entry, the tested form may be a part): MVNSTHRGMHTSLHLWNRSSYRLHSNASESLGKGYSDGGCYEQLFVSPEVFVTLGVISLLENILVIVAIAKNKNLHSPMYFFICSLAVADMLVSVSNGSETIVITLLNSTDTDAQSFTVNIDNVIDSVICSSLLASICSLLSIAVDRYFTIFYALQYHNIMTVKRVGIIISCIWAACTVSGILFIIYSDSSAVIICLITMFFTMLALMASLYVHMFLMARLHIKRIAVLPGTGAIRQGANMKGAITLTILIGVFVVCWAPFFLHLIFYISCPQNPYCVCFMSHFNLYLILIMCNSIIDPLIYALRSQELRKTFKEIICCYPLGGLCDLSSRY

[21] = ZM109 Env clade C HIV-1 fusion inhibitors, dose response, HeLa effector, CEM target cells, luciferase, cherry-pick (AID 652058); type: functional, cell-based
[22] = Luminescence Cell-Based Dose Confirmation HTS to Identify Activators of 5'UTR Stem-Loop Driven Alpha-Synuclein mRNA Translation in H4 Neuroglioblastoma Cells. [Related pubchem assays: 1829 (Project Summary), 1814 (Primary HTS)]; type: functional
[23] = LMP1-driven NF-kB reporter inhibition, dose response, cell-based, luciferase reporter, luminescence, dry powder, set 2 (AID 624376); type: functional
[24] = HEK293T cytotoxicity, dose response, cytotoxicity control for miR-122 modulator project, cell-based, inhibitor set, cherry-pick, set 2 (AID 720697); type: functional
[25] = miR-122 activators in hepatoma reporter cells, dose response, cell-based, Huh7 psiCHECK-miR122, Renilla luciferase, cherry-picked (AID 651956); type: functional;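 also: huh7 hepatoma cells stably carrying a psiCHECK-2 miR-122 sensor plasmid; renilla luciferase signal reporting endogenous miR-122 activity after 48 h compound exposure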

## Cc1ccc(OCC(=O)N2CCN(c3nnc(-c4ccc(C)cc4)c4ccccc34)CC2)cc1
[1]
  EC50: > 60 µM (not active)
[2]
  EC50: 3.12 µM (active)
[3]
  EC50: 2.35 µM (active)
[4]
  EC50: > 53 µM (inactive)
Beta-galactosidase
  IC50: > 80 µM (inactive)
[5]
  IC50: > 47.1 µM (inactive)

## Cc1c(O)ccc2c(CC(=O)N[C@@H](Cc3ccc(O)cc3)C(=O)O)cc(=O)oc12
[6]
  IC50: 0.906 µM (active)
[7]
  EC50: > 195 µM (not active)

## O=C(CC1C(=O)NCCN1Cc1ccccn1)NCCc1ccccc1F (centres undefined)
[8]
  EC50: 2.12 µM (active)
Cells [9]
  IC50: > 29.9 µM (inactive)
[10]
  IC50: 5.23 µM (active)
Cells [11]
  EC50: > 29.9 µM (inactive)

## CN1CCN(C(=O)c2cc3sc4ccccc4c3s2)CC1
Beta-galactosidase
  IC50: > 80 µM (inactive)
[12]
  EC50: > 260 µM (inactive)

## Cc1c(CCOC(=O)CC23CC4CC(CC(C)(C4)C2)C3)sc[n+]1CC(=O)c1ccccc1
[13]
  IC50: > 20 µM (inactive)
[14]
  AC50: 4.35 µM (active)
[15]
  EC50: > 120 µM (not active)
[16]
  AC50: 16.8 µM (active)
[17]
  AC50: 12.7 µM (active)
HEK293 [18]
  EC50: > 59.6 µM (inactive)
HEK293 [19]
  EC50: > 59.6 µM (inactive)
H4
  EC50: > 120 µM (not active)
[20]
  AC50: 3.05 µM (active)
Melanocortin receptor 4
  EC50: > 89.2 µM (inactive)
[21]
  AC50: 3.85 µM (active)
[22]
  EC50: > 120 µM (not active)

## COc1cccc(S(=O)(=O)N(C)C[C@@H]2Oc3cc(C4=CCCCC4)ccc3S(=O)(=O)N([C@H](C)CO)C[C@H]2C)c1
[23]
  AbsAC35: 85.29 µM
[24]
  AC50: 0.502 µM (active)
[25]
  AC50: 30.2 µM (active)
